Measurements published in patent US20100093721A1, “PHENYL AND HETEROARYL SUBSTITUTED THIENO[2,3-d]PYRIMIDINES AND THEIR USE AS ADENOSINE A2a RECEPTOR ANTAGONISTS” (priority 2008, published 2010).
Counter-ions that a name gives are not always drawn.

Legend:
[1] = target: T1, human adenosine A2a receptor (Homo sapiens, UniProt P29274); assay: Adenosine A2a Receptor Functional Assay (A2AGAL2); type: cell-based; conditions: CHO-K1 cells, cAMP inducible beta-galactosidase reporter, 15 nM NECA agonist challenge
T1 construct: expressed in transfected cells; host or cells: CHO-K1
T1 sequence (P29274 whole entry): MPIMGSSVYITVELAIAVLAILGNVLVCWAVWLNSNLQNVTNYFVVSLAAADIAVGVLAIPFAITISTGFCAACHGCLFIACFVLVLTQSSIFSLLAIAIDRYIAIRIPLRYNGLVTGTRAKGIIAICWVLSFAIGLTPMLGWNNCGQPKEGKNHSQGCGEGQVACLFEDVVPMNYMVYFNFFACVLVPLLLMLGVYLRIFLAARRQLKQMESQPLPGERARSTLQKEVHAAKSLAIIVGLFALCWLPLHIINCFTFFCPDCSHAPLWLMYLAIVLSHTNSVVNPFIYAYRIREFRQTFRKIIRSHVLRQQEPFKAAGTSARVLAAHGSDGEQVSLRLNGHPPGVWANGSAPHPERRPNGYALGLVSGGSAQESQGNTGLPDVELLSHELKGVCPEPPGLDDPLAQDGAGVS
Method: Adenosine A2a Receptor Functional Assay (A2AGAL2)
Prior to assay, these plates were cultured for two days at 37° C., 5% CO2, 90% Rh. On the day of the functional assay, culture media was removed and replaced with 45 uL assay medium (Hams/F-12 Modified (Mediatech #10-080CV) supplemented w/0.1% BSA). Test compounds were diluted and 11 point curves created at a 1000× concentration in 100% DMSO. Immediately after addition of assay media to the cell plates, 50 nL of the appropriate test compound antagonist or agonist control curves were added to cell plates using a Cartesian Hummingbird. […] A control curve of NECA, a DMSO/Media control, and a single dose of Forskolin (Sigma F3917) were also included on each plate. After additions, cell plates were allowed to incubate at 37° C., 5% CO2, 90% Rh for 5.5-6 hours. After incubation, media was removed, and cell plates were washed 1×50 uL with DPBS w/o Ca & Mg (Mediatech 21-031-CV). Into dry wells, 20 uL of 1× Reporter Lysis Buffer (Promega E3971 (diluted in dH2O from 5× stock)) was added to each well and plates frozen at −20° C. overnight. For β-galactosidase enzyme colorimetric assay, plates were thawed out at room temperature and 20 μL 2× assay buffer (Promega) was added to each well. Color was allowed to develop at 37° C., 5% CO2, 90% Rh for 1-1.5 h or until reasonable signal appeared. The colorimetric reaction was stopped with the addition of 60 μL/well 1M sodium carbonate. Plates were counted at 405 nm on a SpectraMax Microplate Reader (Molecular Devices). Data was analyzed in Microsoft Excel and IC/EC50 curves were fit using a standardized macro.

[2] = target: T2, human adenosine A1 receptor (Homo sapiens, UniProt P30542); assay: Adenosine A1 Receptor Functional Assay (A1GAL2); type: cell-based; conditions: CHO-K1 cells, cAMP inducible beta-galactosidase reporter, 4 nM r-PIA/1 uM Forskolin challenge
T2 construct: expressed in transfected cells; host or cells: CHO-K1
T2 sequence (P30542 1-326): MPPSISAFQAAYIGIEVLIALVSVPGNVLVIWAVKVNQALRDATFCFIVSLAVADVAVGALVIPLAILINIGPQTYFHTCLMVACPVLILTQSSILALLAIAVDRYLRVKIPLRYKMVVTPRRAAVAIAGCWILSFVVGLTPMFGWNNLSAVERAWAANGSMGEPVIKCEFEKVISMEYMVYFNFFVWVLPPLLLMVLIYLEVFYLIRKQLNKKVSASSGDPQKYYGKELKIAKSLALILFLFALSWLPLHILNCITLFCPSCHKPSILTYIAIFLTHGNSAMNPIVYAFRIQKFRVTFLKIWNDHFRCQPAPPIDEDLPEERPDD
Method: Adenosine A1 Receptor Functional Assay (A1GAL2)
To initiate the functional assay, cryopreserved CHO-K1 cells overexpressing the human adenosine A1 receptor and containing a cAMP inducible beta-galactosidase reporter gene were thawed, centrifuged, DMSO containing media removed, and then seeded with fresh culture media into clear 384-well tissue culture treated plates (BD #353961) at a concentration of 10K cells/well. Prior to assay, these plates were cultured for two days at 37° C., 5% CO2, 90% Rh. On the day of the functional assay, culture media was removed and replaced with 45 uL assay medium (Hams/F-12 Modified (Mediatech #10-080CV) supplemented w/0.1% BSA). Test compounds were diluted and 11 point curves created at a 1000× concentration in 100% DMSO. Immediately after addition of assay media to the cell plates, 50 nL of the appropriate test compound antagonist or agonist control curves were added to cell plates using a Cartesian Hummingbird. Compound curves were allowed to incubate at room temperature on cell plates for approximately 15 minutes before addition of a 4 nM r-PIA (Sigma P4532)/1 uM Forskolin (Sigma F3917) agonist challenge (5 uL volume). A control curve of r-PIA in 1 uM Forskolin, a DMSO/Media control, and a single dose of Forskolin were also included on each plate. After additions, cell plates were allowed to incubate at 37° C., 5% CO2, 90% Rh for 5.5-6 hours. After incubation, media was removed, and cell plates were washed 1×50 uL with DPBS w/o Ca & Mg (Mediatech 21-031-CV). Into dry wells, 20 uL of 1× Reporter Lysis Buffer (Promega E3971 (diluted in dH2O from 5× stock)) was added to each well and plates frozen at −20° C. overnight. For β-galactosidase enzyme calorimetric assay, plates were thawed out at room temperature and 20 μL 2× assay buffer (Promega) was added to each well. Color was allowed to develop at 37° C., 5% CO2, 90% Rh for 1-1.5 h or until reasonable signal appeared. The calorimetric reaction was stopped with the addition of 60 μL/well 1M sodium carbonate. Plates were counted at 405 nm on a SpectraMax Microplate Reader (Molecular Devices). Data was analyzed in Microsoft Excel and IC/EC50 curves were fit using a standardized macro.

[3] = target: T3, human A2a adenosine receptor (Homo sapiens, UniProt P29274); assay: Ligand Binding Assay for Adenosine A2a Receptor; conditions: HEK293 plasma membrane, radioligand [3H]CGS21680; read-out: A2A-B Ki
T3 construct: purchased PerkinElmer RB-HA2a; host or cells: HEK293 plasma membranes
T3 sequence (P29274 whole entry): as the sequence (P29274 whole entry) above
Method: Ligand Binding Assay for Adenosine A2a Receptor
Ligand binding assay of adenosine A2a receptor was performed using plasma membrane of HEK293 cells containing human A2a adenosine receptor (PerkinElmer, RB-HA2a) and radioligand [^3H]CGS21680 (PerkinElmer, NET1021). Assay was set up in 96-well polypropylene plate in total volume of 200 μL by sequentially adding 20 μL 1:20 diluted membrane, 130 μL assay buffer (50 mM Tris.HCl, pH7.4 10 mM MgCl2, 1 mM EDTA) containing [^3H] CGS21680, 50 μL diluted compound (4×) or vehicle control in assay buffer. Nonspecific binding was determined by […] NECA. Reaction was carried out at room temperature for 2 hours before filtering through 96-well GF/C filter plate pre-soaked in 50 mM Tris.HCl, pH7.4 containing 0.3% polyethylenimine. Plates were then washed 5 times with cold 50 mM Tris.HCl, pH7.4, dried and sealed at the bottom. Microscintillation fluid 30 μL was added to each well and the top sealed. Plates were counted on Packard Topcount for [^3H]. Data was analyzed in Microsoft Excel and GraphPad Prism programs. (Varani, K.; Gessi, S.; Dalpiaz, A.; Borea, P. A. British Journal of Pharmacology, 1996, 117, 1693)

Compound | Ki [1] [nM] | Ki [2] [nM] | Ki [3] [nM]
Cc1ccc(-c2nc(N)c3cc(Cc4ccccc4)sc3n2)o1 [Example 1, 6-Benzyl-2-(5-methyl-furan-2-yl)-thieno[2,3-d]pyrimidin-4-ylamine] | 11 | 279 | 11.9
Cc1ccc(-c2nc(N)c3cc(C(=O)c4ccccc4CN4CCOCC4)sc3n2)o1 [Example 7, [4-Amino-2-(5-methyl-furan-2-yl)-thieno[2,3-d]pyrimidin-6-yl]-(2-morpholin-4-ylmethyl-phenyl)-methanone] | – | – | 328
C=C(c1ccccc1)c1cc2c(N)nc(-c3nc(C)cs3)nc2s1 [Example 9, 2-(4-Methyl-thiazol-2-yl)-6-(1-phenyl-vinyl)-thieno[2,3-d]pyrimidin-4-ylamine] | 31 | > 594 | –
CCc1ccc(-c2nc(N)c3cc(Cc4ccccc4)sc3n2)o1 [Example 8, 6-Benzyl-2-(5-ethyl-furan-2-yl)-thieno[2,3-d]pyrimidin-4-ylamine] | 48.8 | 223 | –
Cc1ccc(-c2nc(N)c3cc(C(C)c4ccccc4)sc3n2)o1 (racemic) [Example 16, (±)-2-(5-Methyl-furan-2-yl)-6-(1-phenyl-ethyl)-thieno[2,3-d]pyrimidin-4-ylamine] | 47.8 | 910 | –
Nc1nc(-c2ccc(C3CC3)o2)nc2sc(Cc3ccccc3)cc12 [Example 23, 6-Benzyl-2-(5-cyclopropyl-furan-2-yl)-thieno[2,3-d]pyrimidin-4-ylamine] | 263 | 861 | –
Cc1csc(-c2nc(N)c3cc(C(C)c4ccccc4)sc3n2)n1 (racemic) [Example 17, (±)-2-(4-Methyl-thiazol-2-yl)-6-(1-phenyl-ethyl)-thieno[2,3-d]pyrimidin-4-ylamine] | 100 | 1420 | –
Nc1nc(-c2cnccn2)nc2sc(Cc3ccccc3)cc12 [Example 32, 6-Benzyl-2-pyrazin-2-yl-thieno[2,3-d]pyrimidin-4-ylamine] | 2.42 | 90.9 | –
COc1ccccc1Cc1cc2c(N)nc(-c3nc(C)cs3)nc2s1 [Example 15, 6-(2-Methoxy-benzyl)-2-(4-methyl-thiazol-2-yl)-thieno[2,3-d]pyrimidin-4-ylamine] | 13.2 | 186 | –

Results, then the compound that gave them:

Ki [1] [nM] | Ki [2] [nM] | Ki [3] [nM] | Compound
938 | 20200 | 173 | Cc1ccc(-c2nc(N)c3cc(/C=C/c4ccc(F)cc4)sc3n2)o1 [Example 30, 6-[2-(4-Fluoro-phenyl)-vinyl]-2-(5-methyl-furan-2-yl)-thieno[2,3-d]pyrimidin-4-ylamine]
26.4 | > 1040 | – | N#Cc1cccc(-c2nc(N)c3cc(Cc4ccccc4)sc3n2)n1 [Example 24, 6-(4-Amino-6-benzyl-thieno[2,3-d]pyrimidin-2-yl)-pyridine-2-carbonitrile]
236 | 3340 | 26 | Cc1ccc(-c2nc(N)c3cc(/C=C/c4ccccc4)sc3n2)o1 [Example 33, 2-(5-Methyl-furan-2-yl)-6-styryl-thieno[2,3-d]pyrimidin-4-ylamine]
11.3 | 223 | 17.9 | Nc1nc(-c2ccc(C(F)F)o2)nc2sc(C(O)c3ccccc3)cc12 (centres unmarked) [Example 41, [4-Amino-2-(5-difluoromethyl-furan-2-yl)-thieno[2,3-d]pyrimidin-6-yl]-phenyl-methanol]
107 | > 610 | – | Cc1csc(-c2nc(N)c3cc(C4(c5ccccc5)CC4)sc3n2)n1 [Example 10, 2-(4-Methyl-thiazol-2-yl)-6-(1-phenyl-cyclopropyl)-thieno[2,3-d]pyrimidin-4-ylamine]
1.98 | 10.2 | 6.72 | COc1ccccc1C(O)c1cc2c(N)nc(-c3ccc(C)o3)nc2s1 (centres unmarked) [Example 11, [4-Amino-2-(5-methyl-furan-2-yl)-thieno[2,3-d]pyrimidin-6-yl]-(2-methoxy-phenyl)-methanol]
57.2 | 263 | – | Cc1nc(-c2nc(N)c3cc(Cc4ccccc4)sc3n2)cs1 [Example 28, 6-Benzyl-2-(2-methyl-thiazol-4-yl)-thieno[2,3-d]pyrimidin-4-ylamine]
539 | 2330 | – | Cn1cnc(-c2nc(N)c3cc(Cc4ccccc4)sc3n2)c1 [Example 20, 6-Benzyl-2-(1-methyl-1H-imidazol-4-yl)-thieno[2,3-d]pyrimidin-4-ylamine]
17.5 | 618 | – | Nc1nc(-c2ncccn2)nc2sc(Cc3ccccc3)cc12 [Example 25, 6-Benzyl-2-pyrimidin-2-yl-thieno[2,3-d]pyrimidin-4-ylamine hydrochloride]
13 | 516 | – | COc1ccccc1Cc1cc2c(N)nc(-c3ccc(C(F)F)o3)nc2s1 [Example 39, 2-(5-Difluoromethyl-furan-2-yl)-6-(2-methoxy-benzyl)-thieno[2,3-d]pyrimidin-4-ylamine]
2.48 | 100 | – | Nc1nc(-c2cnco2)nc2sc(Cc3ccccc3)cc12 [Example 19, 6-Benzyl-2-oxazol-5-yl-thieno[2,3-d]pyrimidin-4-ylamine]
2.28 | 20.8 | – | Cc1ccc(-c2nc(N)c3cc(C(O)c4ccccc4)sc3n2)o1 (centres unmarked) [Example 2, [4-Amino-2-(5-methyl-furan-2-yl)-thieno[2,3-d]pyrimidin-6-yl]-phenyl-methanol]
4.37 | 34.4 | – | COc1ccccc1C(O)c1cc2c(N)nc(-c3ccc(C(F)F)o3)nc2s1 (centres unmarked) [Example 45, [4-Amino-2-(5-difluoromethyl-furan-2-yl)-thieno[2,3-d]pyrimidin-6-yl]-(2-methoxy-phenyl)-methanol]
304 | 3160 | – | N#Cc1ccc(-c2nc(N)c3cc(Cc4ccccc4)sc3n2)o1 [Example 18, 5-(4-Amino-6-benzyl-thieno[2,3-d]pyrimidin-2-yl)-furan-2-carbonitrile]
